Measured values from patent US20210267979A1, “THERAPEUTIC AGENT FOR TREATING DIFFUSE GASTRIC CANCER” (KANAZAWA MEDICAL UNIVERSITY, priority 2018, published 2021).
Where two headings read alike, the source gives them in different places.

Legend:
NUGC4 cells = assay: Survival of Balb/c nu/nu mice intraperitoneally transplanted with diffuse gastric cancer cells; format: in vivo, Balb/c nu/nu mouse; settings: NUGC4 intraperitoneal transplant; oral administration from day 21 for 4 weeks, then 4 weeks observation; control mice all died within 7 weeks
Procedure: To a Balb/c nu/nu mouse (6 weeks old), diffuse gastric cancer cells (NUGC4 cells, 2×10^6 cells in 200 micro L PBS) were transplanted by intraperitoneal administration. On 21 days after transplantation, ascites was observed, and oral administration was started with trametinib (0.1 mg/kg body weight or 0.3 mg/kg body weight), everolimus (1.5 mg/kg body weight), combined use of trametinib (0.1 mg/kg body weight) and everolimus (1 mg/kg body weight), combined use of trametinib (0.1 mg/kg body weight) and everolimus (1 mg/kg body weight), combined use of trametinib (0.3 mg/kg) and everolimus (1 mg/kg), or combined use of trametinib (0.3 mg/kg body weight) and everolimus (5 mg/kg body weight). Each of the trametinib and the everolimus was dissolved in a solution (7% DMSO, 13% Tween80, 80% Otsuka glucose injection (5%), HCl equimolar to each compound). To a control group, only a solution containing no medicinal agent was administered. Administration was continued for 4 weeks, followed by observation for the following 4 weeks without administration of the medicinal agent.

NUGC4 [1] = assay: Cell proliferation of diffuse gastric cancer cell strain NUGC4 (Cell Counting Kit-8); format: cell-based; settings: for Inhibitory effect on HGF induced, amphiregulin induced and base line cell proliferation: single agent, 0.001 to 10 micro M; for IC50: Homo sapiens, 72 hours
Procedure: (§1) Each diffuse gastric cancer cell strain of NUGC4 (obtained from Health Science Research Resources Bank (Osaka, Japan)) and GCIY (obtained from Riken BioResource Research Center (Tsukuba, Japan)) was cultured and passaged in an RPMI1640 culture medium containing 10% fetal calf serum, 100 units/mL penicillin, and […] streptomycin antibiotic, and was used for the following experiments. Mycoplasma infection of cultured cells was regularly checked by MycoAlert Mycoplasma Detection kit (Lonza).
(§2) Cell proliferation was measured by Cell Counting Kit-8 (CCK-8) (Dojindo Laboratories, Kumamoto, Japan) (M. Ishiyama, et al., Talenta 44; 1299: 1997). Cells were seeded at 100 micro L/well at a concentration of 5×10^4 cells/mL and were cultured in an incubator at 37° C. for 24 hours. To each well, HGF (R&D systems) (50 ng/mL) or amphiregulin (R&D Systems (Minneapolis, Minn.)) (100 ng/mL) and trametinib (Selleck Chemicals (Houston, Tex.)) (0.001 to 10 micro M) were then added, and the cells were further cultured in an incubator at 37° C. for 72 hours. To each well, 10 micro L of a WST-solution was added, which was incubated at 37° C. for 4 hours. Absorbance was measured at a wavelength of 450 nm by a microplate reader (BIO-RAD Laboratories, Inc.). A similar experiment was repeated three times in triplets.

MKN7 = assay: Cell proliferation of non-diffuse gastric cancer cells MKN7 (Cell Counting Kit-8); format: cell-based, Human; settings: for IC50: Homo sapiens, MKN-7, MKN7
Procedure: as §2
(§3) Effects of trametinib on proliferation of non-diffuse gastric cancer cell were examined by the similar method to that in Example 1.
(§4) Human non-diffuse, well-differentiated gastric cancer cells used were MKN7 (Health Science Research Resources Bank (Osaka, Japan)) and GCR1 (Cancer Research Institute, Kanazawa University).

MKN45 = assay: Cell proliferation of cMet gene-amplified gastric cancer cell strain MKN45 (Cell Counting Kit-8); format: cell-based; settings: Homo sapiens
Procedure: as §2
Effects of trametinib on proliferation of cMet gene-amplified gastric cancer cell were examined by the similar method to that in Example 1.
As the cMet gene-amplified gastric cancer cells, cMet gene-amplified gastric cancer cell strain MKN45 (Health Science Research Resources Bank (Osaka, Japan)) was used.

NUGC4 [2] = assay: Cell proliferation of diffuse gastric cancer cell strain NUGC4 (Cell Counting Kit-8); format: cell-based; settings: for IC50: Homo sapiens
GCR1 = assay: Cell proliferation of non-diffuse gastric cancer cells GCR1 (Cell Counting Kit-8); format: cell-based; settings: Homo sapiens
Procedure: as §2, §3, §4

GCIY = assay: Cell proliferation of diffuse gastric cancer cell strain GCIY (Cell Counting Kit-8); format: cell-based; settings: for IC50: Homo sapiens
Procedure: as §1, §2

[3] = HGF induced proliferation, read-out: Trametinib IC50 (micro M) HGF
[4] = HGF induced, combined with everolimus 1 micro M, read-out: Trametinib IC50 (micro M) HGF
[5] = amphiregulin induced proliferation, read-out: Trametinib IC50 (micro M) amphiregulin
[6] = amphiregulin induced, combined with everolimus 1 micro M, read-out: Trametinib IC50 (micro M) amphiregulin
[7] = base line, Example 5, combined use with everolimus 1 micro M, read-out: Trametinib IC50 (micro M) Base line
[8] = without HGF or amphiregulin, read-out: Trametinib IC50 (micro M) Base line

CO[C@H]1C[C@@H]2CC[C@@H](C)[C@@](O)(O2)C(=O)C(=O)N2CCCC[C@H]2C(=O)O[C@H]([C@H](C)C[C@@H]2CC[C@@H](OCCO)[C@H](OC)C2)CC(=O)[C@H](C)/C=C(\C)[C@@H](O)[C@@H](OC)C(=O)[C@H](C)C[C@H](C)/C=C/C=C/C=C/1C [everolimus]
Survival time as compared with the control group (NUGC4 cells): prolonged survival times

Cc1cc(NC(=O)c2cccc(NC(=O)/C=C/CN(C)C)c2)ccc1Nc1nccc(-c2cccnc2)n1 [JNK-IN-8]
Inhibitory effect on HGF induced, amphiregulin induced and base line cell proliferation (NUGC4 [1]): did not exhibit obvious inhibitory effects

O=C(NC[C@H](O)CO)c1ccncc1Nc1ccc(I)cc1F [pimasertib]
Proliferation inhibitory effect of combined use of pimasertib and rapamycin (MKN7; MKN7, rapamycin 1 micro M): no combined effect was exhibited

CC(=O)Nc1cccc(-n2c(=O)n(C3CC3)c(=O)c3c(Nc4ccc(I)cc4F)n(C)c(=O)c(C)c32)c1 [Trametinib, trametinib]
IC50 (MKN45; MKN-45, HGF added, read-out: Trametinib IC50 (micro M) HGF): 1 nM
IC50 (MKN45; MKN-45, amphiregulin added, read-out: Trametinib IC50 (micro M) amphiregulin): 1 nM
IC50 (MKN45; MKN-45, without HGF and AP, read-out: Trametinib IC50 (micro M) Base line): 1 nM
IC50 (MKN7; [3]): 100 nM
IC50 (MKN7; [4]): 100 nM
IC50 (MKN7; [5]): 300 nM
IC50 (MKN7; [6]): 100 nM
IC50 (MKN7; [7]): 30 nM
IC50 (MKN7; [8]): 100 nM
IC50 (NUGC4 [2]; NUGC-4, HGF induced, combined with everolimus 1 micro M, read-out: Trametinib IC50 (micro M) HGF): 10 nM
IC50 (NUGC4 [2]; NUGC-4, amphiregulin induced, combined with everolimus 1 micro M, read-out: Trametinib IC50 (micro M) amphiregulin): 30 to 100 nM
IC50 (NUGC4 [2]; NUGC-4, base line, Example 5, combined use with everolimus 1 micro M, read-out: Trametinib IC50 (micro M) Base line): ≤ 1 nM
IC50 (GCR1; [3]): 100 nM
IC50 (GCR1; [4]): 100 nM
IC50 (GCR1; [5]): 300 nM
IC50 (GCR1; [6]): 100 nM
IC50 (GCR1; [7]): 30 nM
IC50 (GCR1; [8]): 100 nM
IC50 (NUGC4 [1]; NUGC-4, HGF 50 ng/mL induced proliferation, read-out: Trametinib IC50 (micro M) HGF): 100 nM
IC50 (NUGC4 [1]; NUGC-4, amphiregulin 100 ng/mL induced proliferation, read-out: Trametinib IC50 (micro M) amphiregulin): 300 nM
IC50 (NUGC4 [1]; NUGC-4, without HGF and AP, read-out: Trametinib IC50 (micro M) Base line): ≤ 1 nM
IC50 (GCIY; HGF 50 ng/mL induced proliferation, 72 hours, read-out: Trametinib IC50 (micro M) HGF): 100 nM
IC50 (GCIY; [4]): 100 nM
IC50 (GCIY; amphiregulin 100 ng/mL induced proliferation, 72 hours, read-out: Trametinib IC50 (micro M) amphiregulin): 10000 nM
IC50 (GCIY; [6]): 300 nM
IC50 (GCIY; [7]): 30 nM
IC50 (GCIY; without HGF and AP, 72 hours, read-out: Trametinib IC50 (micro M) Base line): 100 nM
Concentration from which proliferation inhibitory effect on the amphiregulin induced proliferation was observed (GCIY; amphiregulin induced): ≥ 0.03 micro M

O=C(NOC[C@H](O)CO)c1ccc(F)c(F)c1Nc1ccc(I)cc1F [PD0325901]
Proliferation inhibitory effect of combined use of PD0325901 and temsirolimus (MKN7; MKN7, temsirolimus 1 micro M): no combined effect was exhibited
Proliferation inhibitory effect of combined use of PD0325901 and temsirolimus (NUGC4 [2]; temsirolimus 1 micro M): synergistically improved by addition of temsirolimus

AZD5363
Inhibitory effect on the HGF induced cell proliferation (NUGC4 [1]; HGF induced): no inhibitory effect was exhibited except for a high concentration of 10 micro M
Inhibitory effect on the amphiregulin induced cell proliferation (NUGC4 [1]; amphiregulin induced): a slight inhibitory effect was exhibited at a high concentration of 1 micro M or more
Inhibitory effect on HGF induced, amphiregulin induced and base line cell proliferation (NUGC4 [1]): even lower than the inhibitory effect of everolimus
Inhibitory effect on the base line cell proliferation (NUGC4 [1]; without HGF and AP): No inhibitory effect was exhibited
